Laboratory results reported in patent US20250090640A1, “METHOD OF IMPROVING THE VIABILITY OF A DENTAL IMPLANT” (priority 2023, published 2025).

What was measured:
[1] = system: patients with severe, chronic periodontal disease; conditions: 6-week course of daily injections (20 mcg) from 3 days prior to surgery, with oral calcium and vitamin D; cited from earlier work
OVX rats = system: OVX rats; set-up: species or system Sprague-Dawley rats; conditions: rat, in vivo
Excerpt: In this study, Sprague-Dawley rats were divided into three groups (Table 1) to study the impact of abaloparatide treatment on implant viability in rats in a model that mimics osteoporosis by ovariectomy (OVX).
At four months, rats in the OVX groups were ovariectomized, and bone depletion was allowed to occur for two months. At this point, daily injections of abaloparatide (Abalo) or vehicle (VEH) began 42 days prior to implant surgery and were continued out to 21 days past implant surgery.
As shown in FIGS. 2A-2C, 3A-3F, and 4A-4C, altered bone metabolism in the OVX rats and residual ridge defects complicated implant placement. […] However, abaloparatide did increase bone mass density in the femoral shaft and intact maxillac on the non-extraction side of the jaw (FIGS. 4A and 4B, respectively). With continued reference to FIGS. 4A and 4B, there was a 150% increase in mean BMD in OVX rats treated with ABL versus VEH.

relationship of unexpected healing complications after tooth extraction to treatment (OVX rats)	Compound	clinical outcomes relative to placebo during the year following periodontal surgery [1]
	CC[C@H](C)[C@H](NC(=O)[C@H](CCC(=O)O)NC(=O)[C@H](CO)NC(=O)[C@@H](NC(=O)[C@@H](N)CO)C(C)C)C(=O)N[C@@H](CCC(N)=O)C(=O)N[C@@H](CC(C)C)C(=O)N[C@@H](CCSC)C(=O)N[C@@H](Cc1cnc[nH]1)C(=O)N[C@@H](CC(N)=O)C(=O)N[C@@H](CC(C)C)C(=O)NCC(=O)N[C@@H](CCCCN)C(=O)N[C@@H](Cc1cnc[nH]1)C(=O)N[C@@H](CC(C)C)C(=O)N[C@@H](CC(N)=O)C(=O)N[C@@H](CO)C(=O)N[C@@H](CCSC)C(=O)N[C@@H](CCC(=O)O)C(=O)N[C@@H](CCCN=C(N)N)C(=O)N[C@H](C(=O)N[C@@H](CCC(=O)O)C(=O)N[C@@H](Cc1c[nH]c2ccccc12)C(=O)N[C@@H](CC(C)C)C(=O)N[C@@H](CCCN=C(N)N)C(=O)N[C@@H](CCCCN)C(=O)N[C@@H](CCCCN)C(=O)N[C@@H](CC(C)C)C(=O)N[C@@H](CCC(N)=O)C(=O)N[C@@H](CC(=O)O)C(=O)N[C@H](C(=O)N[C@@H](Cc1cnc[nH]1)C(=O)N[C@@H](CC(N)=O)C(=O)N[C@@H](Cc1ccccc1)C(=O)O)C(C)C)C(C)C [Teriparatide]	improved clinical outcomes
no relationship	CC[C@H](C)[C@H](NC(=O)[C@H](CO)NC(=O)[C@H](CCCCN)NC(=O)CNC(=O)[C@H](CCCCN)NC(=O)[C@H](CC(=O)O)NC(=O)[C@H](Cc1cnc[nH]1)NC(=O)[C@H](CC(C)C)NC(=O)[C@H](CC(C)C)NC(=O)[C@H](CCC(N)=O)NC(=O)[C@H](Cc1cnc[nH]1)NC(=O)[C@H](CCC(=O)O)NC(=O)[C@H](CO)NC(=O)[C@@H](NC(=O)[C@H](C)N)C(C)C)C(=O)N[C@@H](CCC(N)=O)C(=O)N[C@@H](CC(=O)O)C(=O)N[C@@H](CC(C)C)C(=O)N[C@@H](CCCNC(=N)N)C(=O)N[C@@H](CCCNC(=N)N)C(=O)N[C@@H](CCCNC(=N)N)C(=O)N[C@@H](CCC(=O)O)C(=O)N[C@@H](CC(C)C)C(=O)N[C@@H](CC(C)C)C(=O)N[C@@H](CCC(=O)O)C(=O)N[C@@H](CCCCN)C(=O)N[C@@H](CC(C)C)C(=O)N[C@@H](CC(C)C)C(=O)NC(C)(C)C(=O)N[C@@H](CCCCN)C(=O)N[C@@H](CC(C)C)C(=O)N[C@@H](Cc1cnc[nH]1)C(=O)N[C@H](C(=O)N[C@@H](C)C(N)=O)[C@@H](C)O [abaloparatide, [Glu^22,25, Leu^23,28,31, Aib^29, Lys^26,30]hPTHrP(1-34)NH2]	
